Experiment in all cases: relative viability (nuclei count vs DMSO), 5 days (fraction); higher = more cells survive
Compound in assay [1]: COc1cc(-c2nn([C@H]3CC[C@H](N4CCN(C(C)=O)CC4)CC3)c3ncnc(N)c23)ccc1NC(=O)c1cc2ccccc2n1C + C[C@@H](Oc1cc(-c2cnn(C3CCNCC3)c2)cnc1N)c1c(Cl)ccc(F)c1Cl [Crizotinib] (partner 1 µM)
Summed up:
(§1)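 Lung cancer cell lines were seeded in 1536-well plates and dosed by pin tool the next day, with either a single drug or a fixed anchor-drug dose combined with five library-drug doses (not always all listed) spaced in √10 steps. Five days later, one step fixed the cells and stained their nuclei (final 0.05% Triton X-100, 1% formaldehyde, 1 ug/ml Hoechst), and nuclei were counted on 4× images. Relative viability is the nuclei count in treated wells divided by the count in vehicle wells, and each value is the median of duplicate plates.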

Compound in assay [2]: COc1cc(-c2nn([C@H]3CC[C@H](N4CCN(C(C)=O)CC4)CC3)c3ncnc(N)c23)ccc1NC(=O)c1cc2ccccc2n1C + C[C@]1(O)C[C@@H](c2nc(-c3ccc4ccc(-c5ccccc5)nc4c3)c3c(N)nccn32)C1 [Linsitinib] (partner 1 µM)
In a few lines:
as §1

Compound in assay [3]: CO[C@@H]1[C@H](N(C)C(=O)c2ccccc2)C[C@H]2O[C@]1(C)n1c3ccccc3c3c4c(c5c6ccccc6n2c5c31)C(=O)NC4 [Midostaurin] + Nc1ncn([C@H]2C[C@H](O)[C@@H](CO)O2)c(=O)n1 [Decitabine] (partner 2 µM)
Summed up: as §1

Compound in assay [4]: COc1cc(-c2nn([C@H]3CC[C@H](N4CCN(C(C)=O)CC4)CC3)c3ncnc(N)c23)ccc1NC(=O)c1cc2ccccc2n1C + Cc1nc(NC(=O)N2CCC[C@H]2C(N)=O)sc1-c1ccnc(C(C)(C)C(F)(F)F)c1 [Alpelisib] (partner 2 µM)
Summed up: as §1

Compound in assay [5]: CO[C@@H]1[C@H](N(C)C(=O)c2ccccc2)C[C@H]2O[C@]1(C)n1c3ccccc3c3c4c(c5c6ccccc6n2c5c31)C(=O)NC4 [Midostaurin] + COc1cccc2cc(-c3nc([C@H]4CC[C@H](C(=O)O)CC4)n4ncnc(N)c34)[nH]c12 [OSI-027] (partner 0.5 µM)
Summed up: as §1

As to UMC-11, the relative viability came out at 0.638 in assay [1] (first compound 0.0128 µM); 0.627 in assay [1] (first compound 0.04048 µM); 0.64 in assay [1] (first compound 0.128 µM); 0.479 in assay [1] (first compound 1.28 µM); 0.961 in assay [2] (first compound 0.0128 µM); 1.01 in assay [2] (first compound 0.04048 µM). In addition, the relative viability in assay [2] (first compound 0.128 µM) stood at 0.984; in assay [2] (first compound 1.28 µM) it was 0.781; in assay [3] (first compound 0.01 µM), 0.655; in assay [3] (first compound 0.03162 µM), 0.772; in assay [3] (first compound 0.1 µM), 0.637; in assay [3] (first compound 0.3162 µM), 0.704. In addition, the relative viability in assay [4] (first compound 0.0128 µM) is 0.892; in assay [4] (first compound 0.04048 µM), 0.956; in assay [4] (first compound 0.128 µM) it was 0.986; in assay [4] (first compound 1.28 µM) it was 0.746; in assay [5] (first compound 0.01 µM), 0.473; in assay [5] (first compound 0.03162 µM), 0.463. In addition, the values for the relative viability in assay [5] (first compound 0.1 µM) and in assay [5] (first compound 0.3162 µM) were 0.536 and 0.293, respectively.

Values taken from the supplement of paper PMC10307832.
